Earlier results on 18 molecules are cited in patent US20090030403A1, “Methods and Systems for Attenuating the Tolerance Response to a Drug” (priority 2007, published 2009).

Like-named read-outs stand apart in the source and are kept apart here.

Test in series [1]: not given
The source holds these as a separate data set.

Test in series [2]: not given
The source holds these as a separate data set.

Series [3] has as its system maximal electroshock seizures. The conditions noted are these: compared with ethosuximide.
Test in series [4]: not given
This is another data set of the same source.

The subject of the next series is sodium channels. The conditions noted are these: in vitro.
In a further series the test system is T-type Ca^2+ currents. Particulars: in vitro.
The subject of series [5] is GABA/benzodiazepine receptor ionophore complex. Particulars: in vitro.
Series [6] has as its system cultured mouse spinal cord neurons. The conditions noted are these: 10-30 μg/mL.
Another series concerns rat hippocampal slices. The conditions noted are these: 10-30 μg/mL.
The subject of series [7] is dopaminergic and serotonergic neurotransmission. Particulars: in vivo microdialysis.
A further series concerns partial seizures. Particulars: adjunctive therapy, partial seizures in adults.
[8] abbreviates: system removing the drug or its metabolites.
The mark [9] stands for this setting: system responsible for the drug's metabolism.

Turning to `CCC1(C)OC(=O)N(C)C1=O` (stereo not shown) [Paramethadione], the “Protein binding (in words)” value is recorded as “Not significant”.
With `CCOc1ccc2nc(S(N)(=O)=O)sc2c1` [Ethoxzolamide], the Protein binding is on record as ~89%. The Half life in series [1] (in vivo) was 2.5 to 5.5 h.
In the case of `CCC1(c2ccccc2)C(=O)NC(=O)NC1=O` [Phenobarbital], in series [1] (in vivo), the Bioavailability is listed as >95%; the Excretion result was “Renal and fecal”; the Half life was 53 to 118 h. For the same molecule, the “Plasma concentration during long term therapy” value in series [2] (adults, per daily dose of 1 mg/kg) is reported as “about 10 μg/ml”.
On to `CN1C(=O)CC(c2ccccc2)C1=O` (stereo not shown) [Phensuximide], for which the “Activity against maximal electroshock seizures” value in series [3] is reported as “more active against maximal electroshock seizures”.
As for `CCC1(C)CC(=O)NC1=O` (stereo not shown) [Ethosuximide], in series [1] (in vivo), the Bioavailability is 93%[1] and the Half life is 53 h. Further, the Excretion result in series [1] (setting [8]) is on record as “Renal (20%)”. For the same molecule, the Metabolism result in series [1] (setting [9]) is “Hepatic (CYP3A4, CYP2E1)”. Also, the “Plasma concentration of the drug during long term therapy” value in series [2] (per daily dose of 1 mg/kg) was “about 2 μg/ml”.
As for `O=C1NC(=O)C(c2ccccc2)(c2ccccc2)N1` [Phenytoin, Diphenylhydantoin], in series [1] (in vivo), the Half life is 22 h. Moreover, the Bioavailability in series [1] (oral) is 70-100%; in series [1] (rectal and intravenous administration), 24.4%. Also, the Excretion entry in series [1] (setting [8]) was “Primarily through the bile”. Moreover, the Metabolism entry in series [1] (setting [9]) is listed as “hepatic”. The “Concentration at which toxic effects such as nystagmus develop” value in [2] (in vivo) was “around 20 μg/ml”. In addition, in [2] (in vivo), the “Therapeutic (plasma) concentration for control of seizures” value is “above 10 μg/ml”.
For `Cc1ncc2n1-c1ccc(Cl)cc1C(c1ccccc1F)=NC2` [Midazolam], the Excretion result in series [1] (in vivo) is “Renal”. For the same molecule, the Half life in series [1] (in vivo) is 1.8 to 6.4 h. Moreover, the Metabolism result in series [1] (in vivo) is “Hepatic”. In addition, the Bioavailability entry is on record as “I.M. 90%+” in series [1] (in vivo, im) and “Oral ~36%” in series [1] (in vivo, po). For the same molecule, the “Time to Clinical Onset” value is 5 to 8 min in series [4] (Buccal), 1 to 5 min in series [4] (Intramuscular) and 1 to 5 min in series [4] (Intravenous).
As to `CCC1(c2ccccc2)C(=O)NCNC1=O` [Primidone], in series [1] (in vivo), the Bioavailability is >90% and the Half life entry was “Primidone: 5-15 hours,”. Besides, the Excretion entry in series [1] (setting [8]) is “Renal”. Further, the Metabolism result in series [1] (setting [9]) was “Hepatic”. Besides, the “Plasma concentration of the drug during long term therapy” value in series [2] (per daily dose of 1 mg/kg) is “about 1 μg/ml”.
For `NC(=O)NC(=O)Cc1ccccc1` [Phenacemide], the Half life in series [1] (in vivo) was 22 to 25 h.
`CN1C(=O)CN=C(c2ccccc2)c2cc(Cl)ccc21` [Diazepam]: the “Time to Clinical Onset” value in series [4] (Rectal) is 5 to 15 min.
As for `CCCC(C)(COC(N)=O)COC(N)=O` [Meprobamate], the Half life in [1] (in vivo) is 10 h. In addition, in series [1] (setting [8]), the Excretion result is given as “Renal”. Besides, in series [1] (setting [9]), the Metabolism result is listed as “Hepatic”.
Consider `NC(=O)N1c2ccccc2C=Cc2ccccc21` [Carbamazepine], for which the Excreted unchanged in [1] (in urine where stated) is reported as 2-3% excreted unchanged in urine. Besides, the Half life in [1] (in vivo) is 25 to 65 h. For the same molecule, the Metabolism result in series [1] (setting [9]) is on record as “hepatic CYP3A4 to active epoxide form”.
Consider `CCC1(c2ccccc2)NC(=O)N(C)C1=O` (stereo not shown) [Mephenytoin], for which the Half life in series [1] (in vivo) is 7 h.
`CN1C(=O)CC(C)(c2ccccc2)C1=O` (stereo not shown) [Mesuximide]: the “Activity against maximal electroshock seizures” value in series [3] was “more active against maximal electroshock seizures”. The Half life in series [1] (active metabolite) is 28 to 38 h (active metabolite); in [1] (in vivo), 1.4 to 2.6 h (mesuximide). Also, the Excretion result in series [1] (setting [8]) is recorded as “Renal”. The Metabolism entry in series [1] (setting [9]) was “Hepatic (demethylation and glucuronidation)”.
For the molecule `NS(=O)(=O)Cc1noc2ccccc12` [Zonisamide, 1,2-benzisoxazole-3-methanesulfonamide], in the series on sodium channels, the “Effect on sodium channels” value is given as “blocks sodium channels”. Besides, the “Effect on T-type Ca2+ currents” value in the series on T-type Ca^2+ currents is on record as “reduces voltage-dependent, transient inward currents”. In series [5], the “Binding to GABA/benzodiazepine receptor ionophore complex” value was “binds to the GABA/benzodiazepine receptor ionophore complex in an allosteric fashion” and the Chloride flux result is “does not produce changes in chloride flux”. Further, in series [6], the Synaptically-driven electrical activity was “suppresses synaptically-driven electrical activity”. Further, in series [6] (cultured mouse spinal cord neurons), the “Postsynaptic GABA or glutamate responses” value is “without affecting”. The “Neuronal or glial uptake of [3H]-GABA” value in the series on rat hippocampal slices is listed as “without affecting”. Also, the “Dopaminergic and serotonergic neurotransmission” value in series [7] is “facilitates both dopaminergic and serotonergic neurotransmission”. Besides, in the series with partial seizures, the “Effective doses in controlled trials” value was 100 to 600 mg/day. For the same molecule, in [1] (in red blood cells), the Half life was 105 h. Also, the Excretion entry in [1] (setting [8]) is “Renal”. Further, in series [1] (setting [9]), the Metabolism entry was “Hepatic”. For the same molecule, the “Carbonic anhydrase inhibiting activity” value in the series on carbonic anhydrase is “weak”.
Take `CC(C)C[C@H](CN)CC(=O)O` [Pregabalin]: in series [1] (in vivo), the Bioavailability entry is on record as “≧90%” and the Half life is 5 to 6.5 h. The Excretion entry in series [1] (setting [8]) is given as “Renal”. Further, in series [1] (setting [9]), the Metabolism result is “Negligible”.
For the molecule `O=C1Nc2ccc(Cl)cc2C(c2ccccc2Cl)=NC1O` (stereo not shown) [Lorazepam], the Half life in series [1] (in vivo) is 10 to 20 h. Further, in [1] (setting [8]), the Excretion entry is “Renal”. In addition, in series [1] (setting [9]), the Metabolism result is reported as “Hepatic”.
Take `CCC(C)C(CC)C(N)=O` (stereo not shown) [Valnoctamide]: in series [1] (in vivo), the Bioavailability was 94%[1] and the Half life is 10 h. Besides, the Metabolism entry in series [1] (setting [9]) is “Hepatic”.
